Measurements: patent US20240285576A1, “R-MDMA FOR TREATMENT OF PAIN” (Mind Medicine, Inc., priority 2023, published 2024)

Experiments:
[1] = tested on: Mice; experiment: Acute pain: mouse tail flick; settings: for MPE, tail flick: model of acute pain (FIG. 3)
[2] = tested on: healthy volunteer population; experiment: Subjective effects in humans (psychedelic experience questionnaires, 5D-ASC, VAS); format: in vivo
Experimental: Doses of any of the compounds herein can be 20-300 mg. […] Compounds can be administered a single dose or multiple doses, up to three times per day. […] The compounds can be administered before, during, or after the individual has the sensation of pain.

Question: How did the “latency of the tail flick” value ([1]; R-MDMA 17 and 30 mg/kg PO, 30, 60 and 90 minutes after administration, comparable to morphine (FIG. 2)) turn out when `CN[C@H](C)Cc1ccc2c(c1)OCO2` [R-MDMA] was run?
Answer: Its value is “statistically significant increase”.

Question: What about the “MPE, tail flick” value ([1]; R-MDMA 17 and 30 mg/kg PO) of the same compound?
Answer: Its value is 60%.

Question: And the “% MPE (percent of maximal possible effect), tail flick” value ([1]; R-MDMA treated animals, 60 and 90 minutes post-treatment)?
Answer: The value was “significantly increased”.

Question: What about the “subjective experience on standard psychedelic experience questionnaires” value ([2]; R-MDMA 75 mg, 125 mg, 175 mg or 225 mg, compared to racemic MDMA) of the same compound?
Answer: Its value is “differentiated subjective experience”.

Question: What about the “measures of emotional breakthrough” value ([2]; R-MDMA 75 mg, 125 mg, 175 mg or 225 mg, healthy volunteer population) of the same compound?
Answer: The value was “dose dependent changes”.

Question: And the “psychedelic-type effects (5D-ASC total OAV score)” value ([2]; R-MDMA 300 mg compared with S-MDMA (125 mg), expected)?
Answer: The value was “greater psychedelic-type effects”.

Question: Which “subjective stimulation (VAS)” value ([2]; 125 mg of S-MDMA vs 125 mg of R-MDMA, postulated) does the source give for `CN[C@@H](C)Cc1ccc2c(c1)OCO2` [S-MDMA] here?
Answer: The value was “greater subjective stimulation”.

Question: Which “MPE, tail flick” value ([1]; morphine 4 mg/kg SC) does the source give for `CN1CC[C@]23c4c5ccc(O)c4O[C@H]2[C@@H](O)C=C[C@H]3[C@H]1C5` [morphine, reference compound] here?
Answer: The value was 80%.
